Reference: publication PMC10020352 (Frontiers in Pharmacology, 2023)
Where a SMILES comes first, the peptide text is derived from it. [ ]: non-standard residue; d: D form. Phe(4-NO2) = N[C@@H](Cc1ccc([N+](=O)[O-])cc1)C(=O)O; Phe(4-Cl) = N[C@@H](Cc1ccc(Cl)cc1)C(=O)O; Phe(4-F) = N[C@@H](Cc1ccc(F)cc1)C(=O)O; NMeR = CN[C@@H](CCCNC(=N)N)C(=O)O; Aoc = NCCCCCCCC(=O)O; Ahx = NCCCCCC(=O)O; Sar = CNCC(=O)O

Tests used:
DOP receptor = biological target: T1, DOP receptor (Homo sapiens, UniProt P41143); assay: cell-based
T1 construct: expressed in transfected cells; host or cells: HEK293

[1] = Metabolic stability in rat plasma; format: in vitro ADME; settings: pooled rat plasma, 37°C, peptide 100 μM; for half-life: rat, plasma, read-out: Stability (t1/2) Plasma
Procedure: (§1) Whole blood was collected in-house from adult mixed-gender Wistar rats (RRID: RGD_150520162), and plasma was prepared in 0.2% EDTA as per standard practice. Peptides (final 100 μM) were incubated with pooled rat plasma at 37°C. Samples were collected at different time intervals 0, 5, 10, 15, 30, 60, and 120 min. At each time point, collected samples were immediately added to three volumes of cold ACN. This mixture was vortexed for 30 s and then centrifuged at room temperature (13 K rpm, 5 min). The supernatant was taken and directly placed in glass HPLC vials for LCMS analysis. The protocol for the trypsin stability assay was as for the plasma stability assay except for the […] (bovine pancreatic trypsin 2.5 μg/mL in NH4HCO3 buffer, approx. pH 8–8.5, 37°C).
(§2) Relative concentrations of each peptide from stability assays in plasma or trypsin were analysed using an Agilent binary LC system consisting of an Agilent 1290 Infinity LC pump, Agilent 1,290 auto-sampler coupled with Triple Quad Mass-Spectrometer (MS, model 6460, Agilent Technologies). A bidentate C18 HPLC column (Cogent, 100 Å, […]) with a binary solvent gradient composed of Solvent: A 0.1%v/v formic acid in MQ water and Solvent B: 0.1% v/v formic acid in ACN was used for the separation. The MS parameters were optimised for all compounds to obtain the highest signal in positive Total Ion Current (TIC) mode. Data were analysed using a combination of Microsoft Excel and GraphPad Prism software packages. Data was normalised to time point zero (immediately after compound addition) and expressed in percentages from t = 0. Half-lives were calculated in GraphPad Prism software (v8.3).

[2] = biological target: T2, bovine pancreatic trypsin (Bos taurus, UniProt P00760); assay: Metabolic stability in trypsin; format: in vitro ADME; settings: bovine pancreatic trypsin 2.5 μg/mL, pH 8-8.5, 37°C, peptide 100 μM; read-out: Stability (t1/2) Trypsin
T2 sequence (P00760 24-246): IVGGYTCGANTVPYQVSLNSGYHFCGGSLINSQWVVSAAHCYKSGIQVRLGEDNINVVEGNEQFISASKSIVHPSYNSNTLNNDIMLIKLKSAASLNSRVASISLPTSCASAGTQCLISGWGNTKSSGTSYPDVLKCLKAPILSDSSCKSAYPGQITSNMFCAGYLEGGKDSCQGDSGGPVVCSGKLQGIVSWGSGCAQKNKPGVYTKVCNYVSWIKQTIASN
Procedure: as §1, §2

KOP receptor = KOP receptor (Homo sapiens, UniProt P41145); assay: cell-based; format: cell-based
MOP receptor = biological target: T3, MOP receptor (Homo sapiens, UniProt P35372); assay: cell-based
T3 construct: expressed in transfected cells; host or cells: HEK293

[3] = tested on: FCA model of inflammatory nociception; settings: rat, in vivo

T1 sequence (P41143 whole entry): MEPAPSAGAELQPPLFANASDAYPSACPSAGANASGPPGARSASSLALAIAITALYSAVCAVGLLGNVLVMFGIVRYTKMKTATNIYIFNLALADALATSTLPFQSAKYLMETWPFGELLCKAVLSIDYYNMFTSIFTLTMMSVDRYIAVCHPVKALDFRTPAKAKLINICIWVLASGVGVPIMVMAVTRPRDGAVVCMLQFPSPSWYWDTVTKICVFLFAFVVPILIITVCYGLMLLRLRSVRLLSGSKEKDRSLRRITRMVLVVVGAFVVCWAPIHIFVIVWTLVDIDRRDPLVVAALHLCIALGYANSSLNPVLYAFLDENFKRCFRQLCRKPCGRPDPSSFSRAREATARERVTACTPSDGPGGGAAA
T3 sequence (P35372 whole entry): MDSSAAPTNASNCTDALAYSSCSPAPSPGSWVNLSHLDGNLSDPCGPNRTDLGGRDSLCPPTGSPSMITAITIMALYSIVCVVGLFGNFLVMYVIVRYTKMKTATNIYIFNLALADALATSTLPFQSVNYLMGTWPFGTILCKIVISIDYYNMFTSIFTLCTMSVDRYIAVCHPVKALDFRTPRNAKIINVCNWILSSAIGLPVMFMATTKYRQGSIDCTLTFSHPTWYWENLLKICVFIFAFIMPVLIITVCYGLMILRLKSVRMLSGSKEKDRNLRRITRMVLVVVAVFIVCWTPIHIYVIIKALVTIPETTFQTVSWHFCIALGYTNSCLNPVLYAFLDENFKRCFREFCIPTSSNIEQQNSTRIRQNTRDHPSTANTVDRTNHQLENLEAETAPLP
Chain of KOP receptor (P41145 whole entry): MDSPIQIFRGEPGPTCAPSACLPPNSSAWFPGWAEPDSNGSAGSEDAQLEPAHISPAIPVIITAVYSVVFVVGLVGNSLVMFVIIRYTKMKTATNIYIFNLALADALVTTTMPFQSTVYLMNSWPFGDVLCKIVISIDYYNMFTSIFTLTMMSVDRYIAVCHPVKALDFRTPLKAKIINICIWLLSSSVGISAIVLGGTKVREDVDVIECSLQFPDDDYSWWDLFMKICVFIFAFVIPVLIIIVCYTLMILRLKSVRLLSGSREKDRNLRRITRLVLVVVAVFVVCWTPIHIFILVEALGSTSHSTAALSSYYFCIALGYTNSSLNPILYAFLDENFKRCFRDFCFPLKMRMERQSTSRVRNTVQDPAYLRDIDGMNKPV

Row | SMILES | EC50 (DOP receptor) [nM] | half-life [1] [min] | half-life [2] [min] | EC50 (KOP receptor) [nM] | EC50 (MOP receptor) [nM] | Selectivity (fold) KOP/DOP (DOP receptor) [fold] | Selectivity (fold) KOP/DOP (MOP receptor) [fold] | selectivity for KOP receptor over MOP receptor and DOP receptor (KOP receptor) [fold] | Stability (t1/2) Plasma [1] [min] | paw withdrawal threshold in the contralateral (uninflamed, untreated) paw [3]
1 | CC(C)C[C@H](NC(=O)[C@H](Cc1ccc([N+](=O)[O-])cc1)NC(=O)CN(C)C(=O)[C@@H](N)Cc1ccc(O)cc1)C(=O)N[C@@H](CCCNC(=N)N)C(=O)N(C)[C@@H](CCCNC(=N)N)C(=O)NCCCCCCCC(N)=O [KA313] (H-Y[Sar][Phe(4-NO2)]LR[NMeR][Aoc]-NH2) | > 10000 | 12.5 | > 1000 | 4.45 | > 10000 |  |  |  |  | 
2 | CC(C)C[C@H](NC(=O)[C@H](Cc1ccc([N+](=O)[O-])cc1)NC(=O)CNC(=O)CNC(=O)[C@@H](N)Cc1ccc(O)cc1)C(=O)N[C@@H](CCCNC(=N)N)C(=O)N[C@H](CCCNC(=N)N)C(N)=O [KA201] | 2180 |  | 6.4 | 1090 | 1720 | 2 | 2 |  |  | 
3 | CC(C)C[C@H](NC(=O)[C@H](Cc1ccc([N+](=O)[O-])cc1)NC(=O)CN(C)C(=O)[C@@H](N)Cc1ccc(O)cc1)C(=O)N[C@@H](CCCNC(=N)N)C(=O)N[C@H](CCCNC(=N)N)C(=O)NCCCCCCCC(N)=O [KA314] (H-Y[Sar][Phe(4-NO2)]LR[dR][Aoc]-NH2) | > 10000 | 18.6 | 16.1 | 2.49 | > 10000 |  |  |  |  | 
4 | CC(C)C[C@@H](NC(=O)[C@@H](Cc1ccccc1)NC(=O)[C@H](N)Cc1ccccc1)C(=O)N[C@H](CCCCN)C(=O)N1CCC(N)(C(=O)O)CC1 [CR845, reference compound] |  |  | > 1000 |  |  |  |  |  |  | 
5 | CC(C)C[C@H](NC(=O)[C@H](Cc1ccc([N+](=O)[O-])cc1)NC(=O)CN(C)C(=O)[C@@H](N)Cc1ccc(O)cc1)C(=O)N[C@H](CCCNC(=N)N)C(=O)N[C@@H](CCCNC(=N)N)C(N)=O [KA205] (H-Y[Sar][Phe(4-NO2)]L[dR]R-NH2) | 3920 | 28.7 | 3260 | 1800 | > 10000 | 2 |  |  |  | 
6 | CC(C)C[C@H](NC(=O)[C@H](Cc1ccc(Cl)cc1)NC(=O)CN(C)C(=O)[C@@H](N)Cc1ccc(O)cc1)C(=O)N[C@@H](CCCNC(=N)N)C(=O)N[C@H](CCCNC(=N)N)C(N)=O [KA206] (H-Y[Sar][Phe(4-Cl)]LR[dR]-NH2) | > 10000 | 31.9 | 15.9 | 6.1 | > 10000 |  |  |  |  | 
7 | CC(C)C[C@H](NC(=O)[C@H](Cc1ccc([N+](=O)[O-])cc1)NC(=O)CN(C)C(=O)[C@@H](N)Cc1ccc(O)cc1)C(=O)N[C@@H](CCCNC(=N)N)C(=O)N(C)[C@@H](CCCNC(=N)N)C(N)=O [KA310] (H-Y[Sar][Phe(4-NO2)]LR[NMeR]-NH2) | > 10000 |  | > 1000 | 1.77 | > 10000 |  |  | > 1000 |  | 
8 | CC(C)C[C@H](NC(=O)[C@H](Cc1ccc(Cl)cc1)NC(=O)CN(C)C(=O)[C@@H](N)Cc1ccc(O)cc1)C(=O)N[C@@H](CCCNC(=N)N)C(=O)N(C)[C@@H](CCCNC(=N)N)C(=O)NCCCCCCCC(N)=O [KA312] (H-Y[Sar][Phe(4-Cl)]LR[NMeR][Aoc]-NH2) | > 10000 | 15.6 | 445 | 3.79 | > 10000 |  |  |  |  | 
9 | CC(C)C[C@H](NC(=O)[C@H](Cc1ccc(Cl)cc1)NC(=O)CN(C)C(=O)[C@@H](N)Cc1ccc(O)cc1)C(=O)N[C@@H](CCCNC(=N)N)C(=O)N[C@H](CCCNC(=N)N)C(=O)NCCCCCC(N)=O [KA304] (H-Y[Sar][Phe(4-Cl)]LR[dR][Ahx]-NH2) | 1600 | 79 | 8.33 | 3.64 | 363 | 440 | 100 |  |  | 
10 | CC(C)C[C@H](NC(=O)[C@H](Cc1ccc(Cl)cc1)NC(=O)CN(C)C(=O)[C@@H](N)Cc1ccc(O)cc1)C(=O)N[C@@H](CCCNC(=N)N)C(=O)N(C)[C@@H](CCCNC(=N)N)C(N)=O [KA309] (H-Y[Sar][Phe(4-Cl)]LR[NMeR]-NH2) | > 10000 |  | > 1000 | 3.9 | > 10000 |  |  |  | 174.1 | 
11 | CC(C)C[C@H](NC(=O)[C@H](Cc1ccc(Cl)cc1)NC(=O)CN(C)C(=O)[C@@H](N)Cc1ccc(O)cc1)C(=O)N[C@@H](CCCCN)C(=O)N[C@H](CCCNC(=N)N)C(N)=O [KA306] (H-Y[Sar][Phe(4-Cl)]LK[dR]-NH2) | > 10000 | 160 | 69.9 | 26 | > 10000 |  |  |  |  | 
12 | CC(C)C[C@H](NC(=O)[C@H](Cc1ccccc1)NC(=O)CN(C)C(=O)[C@@H](N)Cc1ccc(O)cc1)C(=O)N[C@@H](CCCNC(=N)N)C(=O)N[C@H](CCCNC(=N)N)C(N)=O [KA203] (H-Y[Sar]FLR[dR]-NH2) | > 10000 | 72 | 13.6 | 74.7 | > 10000 |  |  |  |  | 
13 | CC(C)C[C@H](NC(=O)[C@H](Cc1ccc(Cl)cc1)NC(=O)CN(C)C(=O)[C@@H](N)Cc1ccc(O)cc1)C(=O)N(C)[C@@H](CCCNC(=N)N)C(=O)N[C@H](CCCNC(=N)N)C(N)=O [KA301] (H-Y[Sar][Phe(4-Cl)]L[NMeR][dR]-NH2) |  | 2240 |  |  |  |  |  |  |  | 
14 | CC(C)C[C@H](NC(=O)[C@H](Cc1ccc(F)cc1)NC(=O)CN(C)C(=O)[C@@H](N)Cc1ccc(O)cc1)C(=O)N[C@@H](CCCNC(=N)N)C(=O)N[C@H](CCCNC(=N)N)C(N)=O [KA207] (H-Y[Sar][Phe(4-F)]LR[dR]-NH2) | > 10000 | 38.2 | 7.6 | 6.7 | 3450 |  | 515 |  |  | 
15 | CC(C)C[C@H](NC(=O)[C@H](Cc1ccc(Cl)cc1)NC(=O)[C@H](C)NC(=O)[C@@H](N)Cc1ccc(O)cc1)C(=O)N[C@@H](CCCNC(=N)N)C(=O)N[C@H](CCCNC(=N)N)C(N)=O [KA307] (H-YA[Phe(4-Cl)]LR[dR]-NH2) | > 10000 |  |  | 1040 | 1870 |  | 2 |  |  | 
16 | CN1CC[C@]23c4c5ccc(O)c4O[C@H]2[C@@H](O)C=C[C@H]3[C@H]1C5 [Morphine, reference compound] |  |  |  |  |  |  |  |  |  | significantly reduced
17 | C[C@@H](O)[C@H](NC(=O)[C@H](Cc1ccc(Cl)cc1)NC(=O)CN(C)C(=O)[C@@H](N)Cc1ccc(O)cc1)C(=O)N[C@@H](CCCNC(=N)N)C(=O)N[C@H](CCCNC(=N)N)C(N)=O [KA308] (H-Y[Sar][Phe(4-Cl)]TR[dR]-NH2) | > 10000 |  |  | 230 | 5820 |  | 25 |  |  | 
18 | CC(C)C[C@H](NC(=O)[C@H](Cc1ccc([N+](=O)[O-])cc1)NC(=O)CN(C)C(=O)[C@@H](N)Cc1ccc(O)cc1)C(=O)N(C)[C@@H](CCCNC(=N)N)C(=O)N[C@H](CCCNC(=N)N)C(N)=O [KA303] (H-Y[Sar][Phe(4-NO2)]L[NMeR][dR]-NH2) | 1320 | 168 | 12.1 | 13.5 | > 10000 | 98 |  |  |  | 
19 | CC(C)C[C@H](NC(=O)[C@H](Cc1ccc(F)cc1)NC(=O)CN(C)C(=O)[C@@H](N)Cc1ccc(O)cc1)C(=O)N(C)[C@@H](CCCNC(=N)N)C(=O)N[C@H](CCCNC(=N)N)C(N)=O [KA302] (H-Y[Sar][Phe(4-F)]L[NMeR][dR]-NH2) | 1660 |  | > 1000 | 11.6 | 4000 | 143 | 344 |  | 323.9 | 
20 | CC(C)C[C@H](NC(=O)[C@H](Cc1ccc([N+](=O)[O-])cc1)NC(=O)CNC(=O)CN(C)C(=O)[C@@H](N)Cc1ccc(O)cc1)C(=O)N[C@@H](CCCNC(=N)N)C(=O)N[C@H](CCCNC(=N)N)C(N)=O [KA202] | > 10000 |  | 8.5 | 930 | > 10000 |  |  |  |  | 
